Results published in PMC11597746 (Pharmaceutics, 2024).
Where “and” joins values, the source holds several entries; their conditions need not be identical. Equal entries are not always repeated. Structures can show the parent of a compound that is named as a salt. Where two headings read alike, the source gives them in different places. Blank lines part the entries; values can stand above or below the compound they belong to.

How the values were obtained:
[1] = IIIPA group: PA 100 mg/kg b.w. + vehiculum, n = 8, mean ± SD, cited from earlier work
[2] = Plasma pharmacokinetics of PA, GPA and SPA in rats after single oral dose (HPLC-UV, noncompartmental analysis); assay type: in vivo, rats (Rattus norvegicus, outbred Wistar stock, males)
Procedure: (§1) Rats (Rattus norvegicus, outbred Wistar stock, males, 14 weeks old) were obtained from Anima Sp. z o.o. SK & ViVARI s.c. They were acclimated for one week in a temperature- and humidity-controlled environment with a 12 h light/dark cycle and had ad libitum access to food and water.
The drugs and vehicle were administered directly into the animals’ stomachs using a gastric probe. Animals received drugs in a sequential manner.
(§2) Blood samples were stored at −80 °C until analysis.
(§3) This approach reduced the number of animals involved in the experiment, adhering to the principles of the 3R concept. […] No other experimental conditions were altered.
The column temperature was maintained at 25 °C, the analytical wavelength (λmax) was set at 254 nm, and the injection volume was 50 μL. Theophylline was used as the IS.
The total time of analysis for each run was 10 min. Separation was achieved by isocratic elution of the mobile phase, comprising acetonitrile (93:7, v/v) and sodium sulfate 0.05 M pH 2.2 (adjusted with 85% orthophosphoric acid) at a flow rate of 1.0 mL/min through a BDS Hypersil® C18 column (150 mm × 4.6 mm, 5.0 μm particle size) (Thermo Electron Corporation®, Waltham, MA, USA).
(§4) Plasma data were subjected to noncompartmental pharmacokinetic analysis (NCA) using the PKanalix 2024R1 software (Lixoft, France). The maximum plasma concentration (Cmax) and time to reach Cmax (Tmax) were obtained directly from the concentration–time curves. The elimination rate constant (kel) was calculated by linear regression of the final linear part of plasma concentration against time. The elimination half-life (t0.5) was calculated from the formula t0.5 = 0.693/kel. The area under the concentration–time curve (AUC) was calculated using the linear trapezoidal rule. All data were presented as mean ± SD.

[3] = Plasma pharmacokinetics of REG, M-2 and M-5 in rats after single oral dose (UPLC-MS/MS, noncompartmental analysis); assay type: in vivo, rats (Rattus norvegicus, outbred Wistar stock, males); conditions: for AUC0–∞ increased by / Cmax increased by: after the administration of PA (IREG+PA vs. IIREG); for AUC0–t / AUC0–∞ / Cmax: metabolite of REG
Procedure: as §1
The rats were divided into three groups: one group received REG and PA (IREG+PA), another group received REG (IIREG), and the last group received PA (IIIPA). […] [15] to the IREG+PA and IIIPA groups. The drugs and vehicle were administered directly into the animals’ stomachs using a gastric probe. Animals received drugs in a sequential manner.
as §2, §3
A Cortecs UPLC C18 column (2.1 × 50 mm, 1.6 μm) was equipped with an Acquity UPLC BEH C18 VanGuard pre-column (2.1 × 5 mm, 3/Pk, Waters Corporation). The injection volume was 5 μL. The temperature of the autosampler was 4 °C, and the temperature of the column was 40 °C. Mobile phase A comprised 0.1% aqueous FA solution (v/v) and phase B of ACN:MeOH and 0.1% FA aqueous solution at 1:3 (v/v) ratio. The total run time was 5 min.
The gradient was as follows: 0–0.5 min, with 10% B; 0.5–3 min, 95% B; 3–4 min, 95% B; 4–4.1 min, 10% B; and 4.1–5 min, 10% B. The flow rate was 0.4 mL/min. Positive electrospray ionization (ESI) multiple reaction monitoring (MRM) experiments were conducted for sample analysis. […] The Xevo TQ-S micro mass spectrometer settings were used: source temperature 150 °C, desolvation temperature 600 °C, nitrogen gas flow 900 L/h, and capillary voltage 3.6 kV.
as §4

[4] = mean ± SD, cited from earlier work
[5] = patients taking lorlatinib compared to controls; cited from earlier work
plasma proteins = conditions: cited from earlier work
[6] = after administration in tablet form; cited from earlier work
[7] = IREG+PA group: REG 20 mg/kg b.w. + PA 100 mg/kg b.w., n = 8, mean ± SD
[8] = IREG+PA group: REG 20 mg/kg b.w. + PA 100 mg/kg b.w., single p.o. dose, n = 8, mean ± SD
[9] = PA co-administered with REG vs. PA alone
[10] = IREG+PA group: REG 20 mg/kg b.w. + PA 100 mg/kg b.w., single oral dose, n = 8, mean ± SD
[11] = metabolite of REG, IIREG group: vehiculum + REG 20 mg/kg b.w., single oral dose, n = 8
[12] = regorafenib and paracetamol vs. control group
[13] = IIREG group: vehiculum + REG 20 mg/kg b.w., single oral dose, n = 8

AUC0–∞ increased by [3]: 170%
Cmax increased by [3]: 220%
AUC0–t [3, 10]: 31,036.39 ± 16,132.08 (52.0) ng × h/mL
AUC0–∞ [3, 10]: 31,434.01 ± 16,129.53 (51.3) ng × h/mL
Cmax [3, 10]: 1087.58 ± 471.76 (43.4) ng/mL
SMILES: CNC(=O)c1cc(Oc2ccc(NC(=O)Nc3ccc(Cl)c(C(F)(F)F)c3)c(F)c2)cc[n+]1[O-] [M-2, regorafenib-N-oxide]
AUC0–t [4, 11]: 9615.36 ± 2275.41 (23.7) ng × h/mL
AUC0–∞ [4, 11]: 11,469.93 ± 2133.05 (18.6) ng × h/mL

AUC0–∞ increased by [3]: 1730%
Cmax increased by [3]: 2130%
AUC0–t [3, 10]: 15,054.83 ± 7479.43 (49.7) ng × h/mL
AUC0–∞ [3, 10]: 15,506.44 ± 8001.74 (51.6) ng × h/mL
Cmax [3, 10]: 585.96 ± 193.12 (33.0) ng/mL
SMILES: NC(=O)c1cc(Oc2ccc(NC(=O)Nc3ccc(Cl)c(C(F)(F)F)c3)c(F)c2)cc[n+]1[O-] [M-5, N-desmethyl-regorafenib-N-oxide]
AUC0–t [4, 11]: 803.19 ± 177.02 (22.0) ng × h/mL
AUC0–∞ [4, 11]: 847.88 ± 178.97 (21.1) ng × h/mL

t0.5 [3, 10]: 10.67 ± 2.48 (23.28) h
AUC0–∞ increased by [3]: 1140%
Cmax increased by [3]: 890%
SMILES: CNC(=O)c1cc(Oc2ccc(NC(=O)Nc3ccc(Cl)c(C(F)(F)F)c3)c(F)c2)ccn1 [REG, regorafenib]
bind to plasma proteins (plasma proteins): 99.5%
average bioavailability [6]: 69%
AUC0–∞ [4, 13]: 36.85 ± 5.83 (15.8) µg × h/mL
Cmax [4, 13]: 1.87 ± 0.31 (16.5) µg/mL
Vd/F [4, 13]: 2.05 ± 0.61 (29.7) L
kel [4, 13]: 0.11 ± 0.03 (22.8) 1/h
Sum of the Cmax values for REG, M-2, and M-5 ([4]; IIREG group): 2078.95 ± 691.36 ng/mL

Second part, the compound before the results:

SMILES: CC(=O)Nc1ccc(O[C@@H]2O[C@H](C(=O)O)[C@@H](O)[C@H](O)[C@H]2O)cc1 [GPA, paracetamol glucuronide]
Ratio GPA/PA AUC0–t [1]: 1.75 ± 0.47 (27.1)
Ratio GPA/PA AUC0–∞ [1]: 1.78 ± 0.54 (30.6)
Ratio GPA/PA Cmax [1]: 1.67 ± 0.41 (24.8)
AUC0–t ([1]; single p.o. dose): 136.24 ± 23.58 (17.3) µg × h/mL
AUC0–∞ ([1]; single p.o. dose): 154.09 ± 35.58 (23.09) µg × h/mL
Cmax ([1]; single p.o. dose): 38.38 ± 3.75 (9.8) µg/mL
Ratio GPA/PA AUC0–t [2, 7]: 1.50 ± 0.30 (19.7)
Ratio GPA/PA AUC0–∞ [2, 7]: 1.53 ± 0.34 (21.9)
Ratio GPA/PA Cmax [2, 7]: 1.02 ± 0.19 (18.9)
AUC0–t [2, 8]: 97.9 ± 16.13 (16.5) µg × h/mL
AUC0–∞ [2, 8]: 102.00 ± 18.50 (18.1) µg × h/mL
Cmax [2, 8]: 27.11 ± 3.05 (11.25) µg/mL
GPA/PA ratio for Cmax decreased by ([2]; IREG+PA vs. IIIPA): 63.73%
Gmean ratio (90% CI) of AUC0–t ([2]; IREG+PA vs. IIIPA): 0.72 (0.62; 0.84)
Gmean ratio (90% CI) of AUC0–∞ ([2]; IREG+PA vs. IIIPA): 0.67 (0.55; 0.80)
Gmean ratio (90% CI) of Cmax ([2]; IREG+PA vs. IIIPA): 0.71 (0.64; 0.77)
Gmean ratio (90% CI) of ratio GPA/PA AUC0–t ([2]; IREG+PA vs. IIIPA): 0.87 (0.70; 1.09)
Gmean ratio (90% CI) of ratio GPA/PA AUC0–∞ ([2]; IREG+PA vs. IIIPA): 0.88 (0.68; 1.13)
Gmean ratio (90% CI) of ratio GPA/PA Cmax ([2]; IREG+PA vs. IIIPA): 0.62 (0.50; 0.77)
AUC0–t decreased by [2, 9]: 39.16%
AUC0–∞ decreased by [2, 9]: 51.1% and 51.07%

SMILES: CC(=O)Nc1ccc(O)cc1 [PA, paracetamol, reference compound]
decrease in AUC0–∞ [5]: 43%
decrease in Cmax [5]: 15%
Vd/F ([1]; single p.o. dose): 1.98 ± 0.63 mL/g
t0.5 ([1]; single p.o. dose): 2.26 ± 0.70 (31.0) h
tmax ([1]; single p.o. dose): 0.81 ± 0.58 (71.2) h
Cmax [2, 8]: 27.08 ± 3.88 (14.3) µg/mL
t0.5 [2, 8]: 1.14 ± 0.45 (39.7) h
AUC0–t decreased by [2, 9]: 20.72%
AUC0–t decreased by ([2]; PA co-administered with REG vs. PA alone, listed as paracetamol): 17.16%
decrease in Vd/F [2, 12]: 54.04%
decrease in t0.5 [2, 12]: 49.56%

SMILES: CC(=O)Nc1ccc(OS(=O)(=O)O)cc1 [SPA, paracetamol sulfate]
Ratio SPA/PA AUC0–t [1]: 0.91 ± 0.43 (47.3)
Ratio SPA/PA AUC0–∞ [1]: 0.94 ± 0.40 (42.4)
Ratio SPA/PA Cmax [1]: 0.88 ± 0.46 (52.7)
AUC0–t ([1]; single p.o. dose): 71.92 ± 31.03 (43.2) µg × h/mL
AUC0–∞ ([1]; single p.o. dose): 82.42 ± 32.71 (39.7) µg × h/mL
Cmax ([1]; single p.o. dose): 19.41 ± 7.05 (36.4) µg/mL
Ratio SPA/PA AUC0–t [2, 7]: 2.18 ± 0.50 (22.9)
Ratio SPA/PA AUC0–∞ [2, 7]: 2.40 ± 0.68 (28.4)
Ratio SPA/PA Cmax [2, 7]: 1.14 ± 0.12 (10.1)
AUC0–t [2, 8]: 140.89 ± 17.87 (12.7) µg × h/mL
AUC0–∞ [2, 8]: 157.71 ± 24.35 (15.4) µg × h/mL
Cmax [2, 8]: 30.61 ± 3.94 (12.9) µg/mL
Gmean ratio (90% CI) of AUC0–t ([2]; IREG+PA vs. IIIPA): 2.13 (1.58; 2.86)
Gmean ratio (90% CI) of AUC0–∞ ([2]; IREG+PA vs. IIIPA): 2.04 (1.54; 2.71)
Gmean ratio (90% CI) of Cmax ([2]; IREG+PA vs. IIIPA): 1.67 (1.29; 2.15)
Gmean ratio (90% CI) of ratio SPA/PA AUC0–t ([2]; IREG+PA vs. IIIPA): 2.58 (1.84; 3.60)
Gmean ratio (90% CI) of ratio SPA/PA AUC0–∞ ([2]; IREG+PA vs. IIIPA): 2.69 (1.94; 3.72)
Gmean ratio (90% CI) of ratio SPA/PA Cmax ([2]; IREG+PA vs. IIIPA): 1.47 (1.04; 2.09)
SPA/PA ratio for AUC0–t increased by ([2]; IREG+PA vs. IIIPA): 139.52%
SPA/PA ratio for AUC0–∞ increased by ([2]; IREG+PA vs. IIIPA): 155.32%
AUC0–t increased by [2, 9]: 95.89%
AUC0–∞ increased by [2, 9]: 91.35%
Cmax increased by [2, 9]: 57.70%
